Measurements as given in patent US20250163006A1, “New Coolants, and Preparations Containing Same” (Symrise AG, priority 2022, published 2025).
Where two headings read alike, the source gives them in different places.

Biological target: T1, human TRPM8 receptor (Homo sapiens, UniProt Q7Z2W7)
T1 construct: expressed in transfected cells; host or cells: HEK293, stably transfected, tetracycline-inducible expression
Assay: Assay on TRPM8 modulators: Ca2+-sensitive dye (Fluo-4) fluorescence in HEK293-TRPM8 test cells
Format: cell-based
Parameters: relative TRPM8 activation: concentration or dose not given beside the values
Conditions: for relative TRPM8 activation: HEK293 cells recombinantly expressing human TRPM8; for EC50: HEK293-TRPM8 cells
Text: The starting point for cloning the human TRPM8 receptor is an LnCaP cDNA bank. This is commercially available (e.g. BioChain, Hayward, USA) or can be produced from the andro gene-sensitive human prostate adenocarcinoma cell line LnCaP (e.g. ATCC, CRL1740 or ECACC, 891 1021 1) using standard kits.
The coding TRPM8 sequence (see e.g. http://www. ncbi.nlm.nih.gov/entrez/viewer.fcgi?db=nuccore&id=109689694) can be PCR-amplified and cloned using standard methods. The human TRPM8 gene isolated in this way was used to produce the plasmid plnd_M8. Alternatively, the TRPM8 gene can also be produced synthetically.
A stably transfected HEK293 cell line was produced as a test cell system using human TRPM8 DNA. Preference was given to HEK293, which offers the possibility of inducing TRPM8 expression using tetracycline via the plasmid introduced.
A test similar to the test already described in the literature by Behrendt H. J. et al, Br. J. Pharmacol. 141, 2004, 737-745, is performed. The agonization or antagonization of the receptor can be quantified using a Ca^2+-sensitive dye (e.g. FURA, Fluo-4 etc.). Agonists alone cause an increase in the Ca^2+ signal; antagonists cause a reduction in the Ca^2+ signal in the presence of e.g. menthol (detected in each case using the Fluo-4 dye, which has different fluorescence properties due to Ca^2+ ions).
First, a fresh culture of transformed HEK cells is prepared in cell culture flasks in the usual way. The HEK293-TRPM8 test cells are detached from the cell culture flasks using trypsin and 40,000 cells/well are seeded with 100 μl medium in 96-well plates (Greiner #655948 poly-D-lysine-coated). To induce the TRPM8 receptor, tetracycline is added to the growth medium (DMEM/HG, 10% FCS tetracycline-free, 4 mM L-glutamine, 15 μg/ml blasticidin, 100 μg/ml hygromycin B, 1 μg/ml tetracycline).
On the following day, the cells are loaded with Fluo-4AM dye and the test is performed. Proceed as follows: Addition of 100 μl/well staining solution Ca-4 kit (RB 141, Molecular Devices) to each 100 μl medium (DMEM/HG, 10% FCS tetracycline-free, 4 mM L-glutamine, 15 μg/ml blasticidin, 100 μg/ml hygromycin B, 1 μg/ml tetracycline).
Incubation in incubator, 30 minutes/37° C./5% CO2, 30 minutes/RT.
Preparation of the test substances (different concentrations in 200 μl HBSS buffer), as well as positive controls (different concentrations of menthol, icilin or lonomycin in 200 μl HBSS buffer) and negative controls (only 200 μl HBSS buffer) Addition of the test substances in quantities of 50 μl/well and measurement of the fluorescence change (e.g. in the assay device FLIPR, Molecular Devices or NovoStar, BMG) at 485 nm excitation, 520 nm emission, and evaluation of the potency of the different substances/concentrations and determination of the ECG. e.g. in the FLIPR assay device, Molecular Devices or NovoStar, BMG) at 485 nm excitation, 520 nm emission, and evaluation of the potency of the various substances/concentrations and determination of the EC50 values.
The test substances are used in triplicates in concentrations of 0.1-200 μM in the assay. Normally, the compounds are kept ready in DMSO solutions and diluted down to a maximum DMSO concentration of 2% for the assay.
The activity of the active substances in relation to activation of the TRPM8 channel is determined using the assay described. This is done in a concentration-dependent manner. For each active substance, 6 to 10 concentrations are measured as standard. A mathematical method (4-parameter or 5-parameter logistic curve fitting) can be used to determine the EC50 value as the inflection point of the sigmoidal curve from the activity values determined. These are standard biochemical methods that are familiar to experts.

[1] = TRPM8 activation, 6 to 10 concentrations, logistic curve fitting, read-out: EC50 value

T1 sequence (Q7Z2W7 whole entry): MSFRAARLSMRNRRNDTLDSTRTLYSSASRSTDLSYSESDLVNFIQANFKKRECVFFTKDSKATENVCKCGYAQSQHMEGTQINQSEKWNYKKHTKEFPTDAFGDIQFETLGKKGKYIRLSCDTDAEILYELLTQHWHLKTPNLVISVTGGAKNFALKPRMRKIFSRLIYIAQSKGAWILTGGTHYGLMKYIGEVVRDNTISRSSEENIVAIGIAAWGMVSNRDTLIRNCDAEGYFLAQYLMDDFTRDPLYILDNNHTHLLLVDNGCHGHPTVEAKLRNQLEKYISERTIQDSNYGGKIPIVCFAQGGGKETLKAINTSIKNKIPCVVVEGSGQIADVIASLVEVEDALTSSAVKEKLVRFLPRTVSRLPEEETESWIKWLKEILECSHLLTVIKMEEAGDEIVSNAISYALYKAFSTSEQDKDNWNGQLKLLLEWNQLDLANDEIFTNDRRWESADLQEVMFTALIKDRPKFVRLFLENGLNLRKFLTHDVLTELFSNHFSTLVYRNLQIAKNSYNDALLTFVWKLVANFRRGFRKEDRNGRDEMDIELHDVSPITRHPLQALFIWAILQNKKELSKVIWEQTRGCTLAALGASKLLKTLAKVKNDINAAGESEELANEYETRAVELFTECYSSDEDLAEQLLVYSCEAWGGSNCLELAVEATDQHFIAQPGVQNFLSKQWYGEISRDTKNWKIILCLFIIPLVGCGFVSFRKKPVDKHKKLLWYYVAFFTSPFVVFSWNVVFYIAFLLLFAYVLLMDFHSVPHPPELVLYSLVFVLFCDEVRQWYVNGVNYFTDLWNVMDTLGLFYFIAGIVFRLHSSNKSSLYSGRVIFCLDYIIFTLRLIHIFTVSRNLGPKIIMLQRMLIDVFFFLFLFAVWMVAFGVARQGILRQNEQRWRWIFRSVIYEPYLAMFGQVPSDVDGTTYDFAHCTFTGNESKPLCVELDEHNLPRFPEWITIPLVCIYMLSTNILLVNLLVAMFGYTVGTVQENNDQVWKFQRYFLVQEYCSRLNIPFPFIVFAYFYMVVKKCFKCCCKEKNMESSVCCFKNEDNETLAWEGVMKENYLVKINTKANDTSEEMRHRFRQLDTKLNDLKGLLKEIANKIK

SMILES	relative TRPM8 activation [%]	other results
CC(Sc1nnc(-c2ccccc2)c(-c2ccccc2)n1)C(=O)N(C)C1CCCCC1 (centres unmarked) [Compound B-39, N-cyclohexyl-2-[(5,6-diphenyl-1,2,4-triazin-3-yl)sulfanyl]-N-methyl-propanamide]	11	
O=C(CSc1nc(-c2ccccc2)c(-c2ccccc2)o1)NC1CCC1 [Compound A-43, N-cyclobutyl-2-(4,5-diphenyloxazol-2-yl)sulfanyl-acetamide]	3	
CNC(=O)C(C)Sc1ncco1 (centres unmarked) [Compound A-50, N-methyl-2-oxazol-2-ylsulfanyl-propanamide]	1	
COC(=O)NCCc1nc(-c2ccccc2)c(-c2ccccc2)o1 [Compound A-63, methyl N-[2-(4,5-diphenyloxazol-2-yl)ethyl]carbamate]	−1	
CNC(=O)C(C)Oc1nnc(-c2ccccc2)c(-c2ccccc2)n1 (centres unmarked) [Compound B-57, 2-[(5,6-diphenyl-1,2,4-triazin-3-yl)oxy]-N-methyl-propanamide]	2	
CCC(=O)CSc1nc(-c2ccccc2)c(-c2ccccc2)o1 [Compound A-61, 1-(4,5-diphenyloxazol-2-yl)sulfanylbutan-2-one]	0	
OCCSc1nnc(-c2ccccc2)c(-c2ccccc2)n1 [Compound B-46, 2-[(5,6-diphenyl-1,2,4-triazin-3-yl)sulfanyl]ethanol]	5	
CNC(=O)C(C)Sc1nc(-c2ccc(C)cc2)c(-c2ccc(C)cc2)o1 (centres unmarked) [Compound A-25, 2-[4,5-bis (p-tolyl)oxazol-2-yl]sulfanyl-N-methyl-propanamide]	55	
CC(=O)NCCc1nc(-c2ccccc2)c(-c2ccccc2)o1 [Compound A-24, N-[2-(4,5-diphenyloxazol-2-yl)ethyl] acetamide]	56	EC50 (Table 6, read-out: TRPM8 EC50): 11.3 µM; EC50 (Table 8, read-out: TRPM8 EC50): 11.3 µM
CC(=O)OCCSc1nc(-c2ccccc2)c(-c2ccccc2)o1 [Compound A-57, 2-(4,5-diphenyloxazol-2-yl)sulfanylethyl acetate]	1	
CNC(=O)C(C)Sc1cnccn1 (centres unmarked) [Compound B-59, N-methyl-2-pyrazine-2-ylsulfanyl-propanamide]	1	
c1ccc(CSc2nnc(-c3ccccc3)c(-c3ccccc3)n2)cc1 [Compound B-49, 3-benzylsulfanyl-5,6-diphenyl-1,2,4-triazine]	3	
CNC(=O)CSc1nc(-c2ccc(C)cc2)c(-c2ccc(C)cc2)o1 [Compound A-68, 2-[4,5-bis(p-tolyl)oxazol-2-yl]sulfanyl-N-methyl-acetamide]	−2	
CNC(=O)C(C)Sc1nnc(C)c(C)n1 (centres unmarked) [Compound B-60, 2-[(5,6-dimethyl-1,2,4-triazin-3-yl)sulfanyl]-N-methyl-propanamide]	1	
CNC(=O)C(C)Sc1nncc(-c2ccccc2)n1 (centres unmarked) [Compound B-34, N-methyl-2-[(5-phenyl-1,2,4-triazin-3-yl)sulfanyl]propanamide]	25	
O=C(CSc1nc(-c2ccccc2)c(-c2ccccc2)o1)NC1CC1 [Compound A-06, N-cyclopropyl-2-(4,5-diphenyloxazol-2-yl)sulfanyl-acetamide]		EC50 [1]: ≤ 1 µM; EC50 (Table 6, read-out: TRPM8 EC50): 0.34 µM; EC50 (Table 8, read-out: TRPM8 EC50): 0.34 µM

SMILES	relative TRPM8 activation [%]	other results
CCNC(=O)CSc1nc(-c2ccccc2)c(-c2ccccc2)o1 [Compound A-17, 2-(4,5-diphenyloxazol-2-yl)sulfanyl-N-ethyl-acetamide]		EC50 (Table 6, read-out: TRPM8 EC50): 5.85 µM; EC50 (Table 8, read-out: TRPM8 EC50): 5.85 µM
COCCNc1nnc(-c2ccccc2)c(-c2ccccc2)n1 [Compound B-55, N-(2-methoxyethyl)-5,6-diphenyl-1,2,4-triazin-3-amine]	2	
CNC(=O)C(C)Sc1nc(-c2ccccc2)c(-c2ccccc2)o1 (centres unmarked) [Compound A-03, 2-(4,5-diphenyloxazol-2-yl)sulfanylpropa noyl-methyl-ammonium; chloride]		EC50 [1]: ≤ 1 µM; EC50 (Table 6, read-out: TRPM8 EC50): 0.01 µM; EC50 (Table 8, read-out: TRPM8 EC50): 0.01 µM
c1ccc(-c2nnc(NCCC3CC3)nc2-c2ccccc2)cc1 [Compound B-50, N-(2-cyclopropylethyl)-5,6-diphenyl-1,2,4-triazin-3-amine]	3	
CN(C)C(=O)CSc1nnc(-c2ccccc2)c(-c2ccccc2)n1 [Compound B-27, 2-[(5,6-diphenyl-1,2,4-triazin-3-yl)sulfanyl]-N,N-dimethyl-acetamide]	56	
c1ccc(-c2nc(C3CCCCN3)oc2-c2ccccc2)cc1 (centres unmarked) [Compound A-44, 4,5-diphenyl-2-(2-piperidyl)oxazole]	3	
COC(=O)C(C)Nc1nnc(-c2ccccc2)c(-c2ccccc2)n1 (centres unmarked) [Compound B-63, methyl 2-[(5,6-diphenyl-1,2,4-triazin-3-yl)amino]propanoate]	−2	
CC(Sc1nnc(-c2ccccc2)c(-c2ccccc2)n1)C(=O)O (centres unmarked) [Compound B-44, 2-[(5,6-diphenyl-1,2,4-triazin-3-yl)sulfanyl]propanoic acid]	5	
c1ccc(CSc2nc(-c3ccccc3)c(-c3ccccc3)o2)cc1 [Compound A-54, 2-benzylsulfanyl-4,5-diphenyl-oxazole]	1	
CC(Sc1nc(-c2ccccc2)c(-c2ccccc2)o1)C(=O)NC(C)(C)C (centres unmarked) [Compound A-33, N-tert-butyl-2-(4,5-diphenyloxazol-2-yl) sulfanyl-propanamide]	21	
CCC(Sc1nnc(-c2ccccc2)c(-c2ccccc2)n1)C(=O)N(C)C (centres unmarked) [Compound B-05, 2-[(5,6-diphenyl-1,2,4-triazin-3-yl)sulfanyl]-N,N-dimethyl-butanamide]		EC50 [1]: ≤ 1 µM; EC50 (Table 5, read-out: TRPM8 EC50): 0.1 µM; EC50 (Table 7, read-out: TRPM8 EC50): 0.1 µM
CC(C)C(=O)CSc1nnc(-c2ccccc2)c(-c2ccccc2)n1 [Compound B-25, 1-[(5,6-diphenyl-1,2,4-triazin-3-yl)sulfanyl]-3-methyl-butan-2-one]	57	
OCC(O)CNc1nnc(-c2ccccc2)c(-c2ccccc2)n1 (centres unmarked) [Compound B-54, 3-[(5,6-diphenyl-1,2,4-triazin-3-yl)amino]propane-1,2-diol]	2	
CCSc1nnc(-c2ccccc2)c(-c2ccccc2)n1 [Compound B-37, 3-ethylsulfanyl-5,6-diphenyl-1,2,4-triazine]	13	
CN(C)c1nc(-c2ccccc2)c(-c2ccccc2)o1 [Compound A-71, N,N-dimethyl-4,5-diphenyl-oxazol-2-amine]	−3	
CNC(=O)/C=C/c1nc(-c2ccccc2)c(-c2ccccc2)o1 [Compound A-35, (E)-3-(4,5-diphenyloxazol-2-yl)-N-methyl-prop-2-enamide]	13	
